The values that follow come from patent US12662491B2 (Redona Therapeutics, Inc., priority 2020, dated 2026).

One assay deals with T1, Zcchc11 enzyme (Homo sapiens, UniProt Q5TAX3).
T1 construct: made in house; host or cells: HEK293 cells (Zcchc11); E. coli Rosetta II (LIN28A)
T1 sequence (Q5TAX3 212-1420): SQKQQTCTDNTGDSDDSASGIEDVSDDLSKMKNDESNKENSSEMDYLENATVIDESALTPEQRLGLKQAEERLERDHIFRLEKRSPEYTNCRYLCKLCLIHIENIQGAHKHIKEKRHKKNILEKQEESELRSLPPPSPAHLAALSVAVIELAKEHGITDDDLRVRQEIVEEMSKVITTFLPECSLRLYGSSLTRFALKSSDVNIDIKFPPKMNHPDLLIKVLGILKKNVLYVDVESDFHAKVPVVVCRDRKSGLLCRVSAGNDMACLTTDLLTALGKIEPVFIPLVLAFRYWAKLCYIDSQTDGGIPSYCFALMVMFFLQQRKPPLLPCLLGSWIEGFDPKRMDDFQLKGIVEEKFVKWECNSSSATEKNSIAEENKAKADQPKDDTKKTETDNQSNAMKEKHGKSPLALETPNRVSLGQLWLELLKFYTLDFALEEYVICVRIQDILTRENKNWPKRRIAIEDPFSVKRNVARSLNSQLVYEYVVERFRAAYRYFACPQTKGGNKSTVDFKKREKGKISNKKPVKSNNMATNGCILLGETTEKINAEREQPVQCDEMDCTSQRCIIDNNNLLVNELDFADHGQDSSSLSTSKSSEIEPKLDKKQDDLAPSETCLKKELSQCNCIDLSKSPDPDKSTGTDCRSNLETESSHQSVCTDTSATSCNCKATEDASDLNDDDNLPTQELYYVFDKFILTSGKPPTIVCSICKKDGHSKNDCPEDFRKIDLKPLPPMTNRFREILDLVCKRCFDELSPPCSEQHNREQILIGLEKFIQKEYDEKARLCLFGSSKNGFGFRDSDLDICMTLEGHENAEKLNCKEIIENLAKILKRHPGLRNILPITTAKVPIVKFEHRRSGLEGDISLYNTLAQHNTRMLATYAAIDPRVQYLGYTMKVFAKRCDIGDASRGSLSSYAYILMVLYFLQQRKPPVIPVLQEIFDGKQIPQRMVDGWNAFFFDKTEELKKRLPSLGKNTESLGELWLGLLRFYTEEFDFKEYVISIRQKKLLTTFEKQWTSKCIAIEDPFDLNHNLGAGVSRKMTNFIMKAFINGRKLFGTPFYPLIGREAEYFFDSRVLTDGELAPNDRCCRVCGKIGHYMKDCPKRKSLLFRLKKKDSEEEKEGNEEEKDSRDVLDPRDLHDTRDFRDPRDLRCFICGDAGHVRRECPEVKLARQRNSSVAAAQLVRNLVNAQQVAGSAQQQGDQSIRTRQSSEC
The assay is described as follows: TUTase assay (Zcchc11 assay, Lin28a-dependent polyuridylation of pre-let-7). As to conditions: LIN28A 10 nM, Zcchc11 0.2 nM, 5′-fluorescein pre-let-7 miRNA 2 nM, UTP 5 uM, room temperature, 30 minutes pre-incubation; read-out: Potency Lin28a-dep Z11 IC50. The assay is classed as biochemical. In a few lines:
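HEK293-expressed human Zcchc11 (residues 212-1420, 0.2 nM) with 10 nM LIN28A and 2 nM 5′-fluorescein pre-let-7, preincubated 30 min at room temperature, pH 7.3. Started with 5 uM UTP; poly(U) tails quenched by 3′-rhodamine A20 probe, read kinetically. IC50 from early-rate four-parameter fit; no-UTP wells define 0%.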
As a reminder, the IC50 is the concentration that gives 50% inhibition. For `CC(Oc1ncccc1Cl)[C@H]1CCCN1c1cc2c(cc1Cl)c(=O)c(C(=O)O)cn2-c1ccccc1` (stereo partly drawn) [Example 8, (R)-6-chloro-7-(2-(1-((3-chloropyridin-2-yl)oxy)ethyl)pyrrolidin-1-yl)-4-oxo-1-phenyl-1,4-dihydroquinoline-3-carboxylic acid], the 50% inhibitory concentration (IC50) is 1000 to 10000 nM.
The same measure, in the same setting: in the case of `Cc1cccnc1OC[C@H]1CC(C)CN1c1cc2c(cc1F)c(=O)c(C(=O)O)cn2-c1ccc(O)cc1` (stereo partly drawn) [Example 7, 6-fluoro-1-(4-hydroxyphenyl)-7-((2R)-4-methyl-2-(((3-methylpyridin-2-yl)oxy)methyl)pyrrolidin-1-yl)-4-oxo-1,4-dihydroquinoline-3-carboxylic acid] it was at most 1000 nM; in that of `COC1CC(n2cc(C(=O)O)c(=O)c3cc(F)c(N4CCC[C@@H]4COc4ncccc4C)cc32)C1` (stereo partly drawn) [Example 30, (R)-6-fluoro-1-(3-methoxycyclobutyl)-7-(2-(((3-methylpyridin-2-yl)oxy)methyl)pyrrolidin-1-yl)-4-oxo-1,4-dihydroquinoline-3-carboxylic acid], at most 1000 nM.

The same assay, now with this note: Lin28a-dependent Zcchc11 (Z11) TUTase activity; read-out: Potency Lin28a-dep Z11 IC50.
As for `CC1(n2cc(C(=O)O)c(=O)c3cc(Cl)c(N4CCC[C@@H]4COc4ncccc4Cl)cc32)CC1` [Compound 129, (R)-6-chloro-7-(2-(((3-chloropyridin-2-yl)oxy)methyl)pyrrolidin-1-yl)-1-(1-methylcyclo-propyl)-4-oxo-1,4-dihydro-quinoline-3-carboxylic acid], the IC50 is at most 1000 nM.
Same read-out and setting: the same measure for `O=C(O)c1cn(C2CC(CO)C2)c2cc(N3CCC[C@@H]3COc3ccccn3)c(F)cc2c1=O` (stereo partly drawn) [Compound 165, (R)-6-fluoro-1-(3-(hydroxy-methyl)cyclo-butyl)-4-oxo-7-(2-((pyridin-2-yloxy)methyl)pyrrolidin-1-yl)-1,4-dihydro-quinoline-3-carboxylic acid]: 10000 to 50000 nM.
With `N#Cc1cccnc1OC[C@H]1CCCN1c1cc2c(cc1Cl)c(=O)c(C(=O)O)cn2-c1ccccc1` [Compound 110, (R)-6-chloro-7-(2-(((3-cyanopyridin-2-yl)oxy)methyl)pyrrolidin-1-yl)-4-oxo-1-phenyl-1,4-dihydro-quinoline-3-carboxylic acid], the IC50 was at most 1000 nM.
On the same count and under the same terms, the same measure for `COc1ccc(Cl)c(OC[C@H]2C[C@@H]3C[C@@H]3N2c2cc3c(cc2F)c(=O)c(C(=O)O)cn3-c2ccc(N3CC(N(C)C)C3)nc2)n1` [Compound 201, 7-((1S,3R,5S)-3-(((3-chloro-6-methoxy-pyridin-2-yl)oxy)methyl)-2-azabicyclo [3.1.0]hexan-2-yl)-1-(6-(3-(dimethyl-amino)azetidin-1-yl)pyridin-3-yl)-6-fluoro-4-oxo-1,4-dihydro-quinoline-3-carboxylic acid]: at most 1000 nM; for `O=C(O)c1cn(-c2ccc(CO)cc2)c2cc(N3CCC[C@@H]3COc3ccccn3)c(F)cc2c1=O` [Compound 162, (R)-6-fluoro-1-(4-(hydroxy-methyl)phenyl)-4-oxo-7-(2-((pyridin-2-yloxy)methyl)pyrrolidin-1-yl)-1,4-dihydro-quinoline-3-carboxylic acid]: at most 1000 nM.

The same assay, now with this note: Lin28a-dependent Zcchc11 (Z11) TUTase assay; read-out: Potency Lin28a-dep Z11 IC50.
As for `CNCCNc1ccc(-n2cc(C(=O)O)c(=O)c3cc(Cl)c(N4CCC[C@@H]4COc4ncccc4Cl)cc32)cn1` [Example 355, (R)-6-chloro-7-(2-(((3-chloropyridin-2-yl)oxy)methyl)pyrrolidin-1-yl)-1-(6-((2-(methylamino)ethyl)amino)pyridin-3-yl)-4-oxo-1,4-dihydro-quinoline-3-carboxylic acid], the 50% inhibitory concentration (IC50) was at most 1000 nM.
Same read-out and setting: the same measure for `O=C(O)c1cn(-c2ccc3[nH]ccc3c2)c2cc(N3CCC[C@@H]3COc3ccccn3)c(F)cc2c1=O` [Example 439, (R)-6-fluoro-1-(1H-indol-5-yl)-4-oxo-7-(2-((pyridin-2-yloxy)methyl)pyrrolidin-1-yl)-1,4-dihydroquinoline-3-carboxylic acid]: at most 1000 nM; for `CC(=O)NC1CCC(n2cc(C(=O)O)c(=O)c3cc(F)c(N4CCC[C@@H]4COc4ccccn4)cc32)CC1` (stereo partly drawn) [Example 358, 1-(4-acetamidocyclo-hexyl)-6-fluoro-4-oxo-7-[(2R)-2-[(pyridin-2-yloxy)methyl]pyrrolo-1-yl]-1,4-dihydroquinoline-3-carboxylic acid]: 1000 to 10000 nM.
With `O=C(O)c1cn(-c2cnccn2)c2cc(N3CC(F)(F)C[C@@H]3COc3ncccc3Cl)c(Cl)cc2c1=O` [Example 638, (R)-6-chloro-7-(2-(((3-chloropyridin-2-yl)oxy)methyl)-4,4-difluoropyrrolidin-1-yl)-4-oxo-1-(pyrazin-2-yl)-1,4-dihydroquinoline-3-carboxylic acid], the IC50 was at most 1000 nM.
On the same count and under the same terms, in the case of `COc1ccc(Cl)c(OC[C@H]2CC(N3CCCC3=O)CN2c2cc3c(cc2Cl)c(=O)c(C(=O)O)cn3-c2ccc(N3CC(N(C)C)C3)nc2)n1` (stereo partly drawn) [Example 642, 6-chloro-7-((5′R)-5′-(((3-chloro-6-methoxypyridin-2-yl)oxy)methyl)-2-oxo-[1,3′-bipyrrolidin]-1-yl)-1-(6-(3-(dimethylamino)azetidin-1-yl)pyridin-3-yl)-4-oxo-1,4-dihydroquinoline-3-carboxylic acid] it was at most 1000 nM.
The same measure, in the same setting: the same measure for `CCc1cc2c(=O)c(C(=O)O)cn(-c3cnccn3)c2cc1N1CCC[C@@H]1COc1ncccc1Cl` [Example 551, (R)-7-(2-(((3-chloropyridin-2-yl)oxy)methyl)pyrrolidin-1-yl)-6-ethyl-4-oxo-1-(pyrazin-2-yl)-1,4-dihydroquinoline-3-carboxylic acid]: at most 1000 nM; for `CC(C)(O)c1ccc(-n2cc(C(=O)O)c(=O)c3cc(C#N)c(N4CCC[C@@H]4COc4ncccc4Cl)cc32)cn1` [Example 575, (R)-7-(2-(((3-chloropyridin-2-yl)oxy)methyl)pyrrolidin-1-yl)-6-cyano-1-(6-(2-hydroxypropan-2-yl)pyridin-3-yl)-4-oxo-1,4-dihydroquinoline-3-carboxylic acid]: at most 1000 nM.
Consider `COc1ccc(Cl)c(-n2cc(C(=O)O)c(=O)c3cc(F)c(N4CCC[C@@H]4COc4ccccn4)cc32)c1` [Example 398, (R)-1-(2-chloro-5-methoxyphenyl)-6-fluoro-4-oxo-7-(2-((pyridin-2-yloxy)methyl)pyrrolidin-1-yl)-1,4-dihydroquinoline-3-carboxylic acid], for which the half-maximal inhibitory concentration (IC50) lay within 1000 to 10000 nM.
With `CNc1cnc(-n2cc(C(=O)O)c(=O)c3cc(Cl)c(N4CCC[C@@H]4COc4ncccc4Cl)cc32)cn1` [Example 506, (R)-6-chloro-7-(2-(((3-chloropyridin-2-yl)oxy)methyl)pyrrolidin-1-yl)-1-(5-(methylamino)pyrazin-2-yl)-4-oxo-1,4-dihydroquinoline-3-carboxylic acid], the concentration for half-maximal inhibition (IC50) is at most 1000 nM.
Still for that read-out and setting: in the case of `O=C(O)c1cn(-c2ccc(N3CCC3)nc2)c2cc(N3CCC[C@H]3COc3ncccc3Cl)c(Cl)cc2c1=O` [Example 516, (S)-1-(6-(azetidin-1-yl)pyridin-3-yl)-6-chloro-7-(2-(((3-chloropyridin-2-yl)oxy)methyl)pyrrolidin-1-yl)-4-oxo-1,4-dihydroquinoline-3-carboxylic acid] it was at most 1000 nM; in that of `COc1ccc(F)c(-n2cc(C(=O)O)c(=O)c3cc(F)c(N4CCC[C@@H]4COc4ccccn4)cc32)c1` [Example 400, (R)-6-fluoro-1-(2-fluoro-5-methoxyphenyl)-4-oxo-7-(2-((pyridin-2-yloxy)methyl)pyrrolidin-1-yl)-1,4-dihydroquinoline-3-carboxylic acid], 1000 to 10000 nM; in that of `CN(C)C1CN(c2ccc(-n3cc(C(=O)O)c(=O)c4cc(C#N)c(N5CCC[C@]5(C)COc5ncccc5F)cc43)cn2)C1` [Example 687, (R)-6-cyano-1-(6-(3-(dimethylamino)azetidin-1-yl)pyridin-3-yl)-7-(2-(((3-fluoropyridin-2-yl)oxy)methyl)-2-methylpyrrolidin-1-yl)-4-oxo-1,4-dihydroquinoline-3-carboxylic acid], at most 1000 nM.
